SMILES strings stand for the structures. A value given as a limit tells only on which side of the number the result lay.

Usually fold induction stands for the ratio of treated to control signal.

In data set [1] the test system is DPX2 (HepG2 cells were stably transfected with the human PXR gene and the fluorescent reporter gene) cells. In words: Cell viability in the PXR induction assay (CellTiter-Fluor). Format: cell-based. The procedure:
• 1. The potential of the test compounds to induce the activity of drug metabolism enzymes through in vitro activation of PXR was evaluated. […] […] Experimental procedures • 3.1. Preparation for plating • 1) 50 mL of FBS was added to 450 mL of cell culture medium. • 2) DPX2 cells were cultured in a T-75 culture flask in a 37 °C, 5% CO2 incubator with 95% relative humidity. When covering 80-90% of the bottom of the culture flask, the cells were digested. • 3) The top layer of cells cultured in the T-75 culture flask was washed with 8 mL of PBS, and the PBS was pipetted off. The cells were digested with 3 mL of pancreatin at 37 °C for about 5 min or until they were floating in the pancreatin. 10 mL (excessive) of a serum-containing culture medium was added to neutralize the pancreatin. • 4) The cell suspension was transferred to a conical-bottomed centrifuge tube and centrifuged at 120 g for 10 min. The cells were suspended in the plating culture medium, and the concentration was adjusted to 4 × 10^5 cells/mL. The diluted cells were added to a 96-well cell culture plate at 100 µL/well. The culture plate was placed in an incubator and incubated at 37 °C for 24 h before the PXR activation experiment. • 3.2. […] […] The final concentration of DMSO was 0.1%. 1 µL of DMSO was added to a well containing 1 mL of pre-incubated culture medium as a solvent control. • 2) The cell culture plate was taken out of the incubator, and the culture medium was discarded. The test compounds and the positive compound were added to appropriate wells at 100 µL/well, and each group was tested in duplicate. The cell plate was placed in an incubator and incubated for 24 h. • 3.3. Quantification of PXR activation • 1) After […] of compound treatment, PXR activation was quantified for the culture. • 2) The CellTiter-Fluor™ cell viability assay kit and the One-Glo Luciferase reagent were equilibrated to room temperature. The GF-AFC (10 µL) substrate was added to Assay Buffer (10 mL) to form a 2× reagent, and the reagent was then diluted to 1× with 10 mL of PBS; the ONE-Glo substrate was added to the ONE-Glo Luciferase Assay buffer. • 3) The cell culture plate was taken out of the incubator, and the culture medium in each well was discarded. The plate was washed twice with PBS. The 1× CellTiter-Fluor™ reagent was added to a sterilized reagent reservoir, and 50 µL was transferred to each well using a multi-channel pipette. The plate was incubated at 37 °C for 30 min. • 4) The 96-well cell plate was taken out of the incubator, and the fluorescence in each well was measured using a microplate reader put in the fluorescence mode at an excitation wavelength of 400 nm and an emission wavelength of 505 nm. • 5) The ONE-Glo reagent was poured into a reagent reservoir, and then 50 µL was transferred to each well using a multi-channel pipette. The reagent was gently and well mixed, and the mixture was incubated and well mixed at room temperature for 5 min. After the incubation, the luminescence in each well was measured using a luminometer.
The calculation formula for cell viability: Percent cell viability (%) = I(sample)/(I(vehicle) × 100 [formula]
I(sample) represents the fluorescence intensity of the sample, and I(vehicle) represents the fluorescence intensity of 0.1% DMSO to cells.

In another data set the target is T1, CYP1A2 (Homo sapiens, UniProt P05177).
T1 sequence (P05177 1-516): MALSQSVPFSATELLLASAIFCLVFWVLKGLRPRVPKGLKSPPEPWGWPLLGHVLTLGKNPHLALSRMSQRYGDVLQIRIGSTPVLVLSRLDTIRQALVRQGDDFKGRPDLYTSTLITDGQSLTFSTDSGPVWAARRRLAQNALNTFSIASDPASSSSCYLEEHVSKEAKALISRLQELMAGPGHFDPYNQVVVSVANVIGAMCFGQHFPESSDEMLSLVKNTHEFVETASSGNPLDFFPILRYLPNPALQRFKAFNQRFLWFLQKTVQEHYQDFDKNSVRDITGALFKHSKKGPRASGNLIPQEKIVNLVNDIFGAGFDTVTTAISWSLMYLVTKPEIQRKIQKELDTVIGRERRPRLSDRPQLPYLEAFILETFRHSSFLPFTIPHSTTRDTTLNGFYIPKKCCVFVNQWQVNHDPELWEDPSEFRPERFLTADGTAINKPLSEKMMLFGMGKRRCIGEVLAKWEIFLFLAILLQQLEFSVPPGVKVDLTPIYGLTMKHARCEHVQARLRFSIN
In words: biochemical.

In another data set the target is CYP3A4 (Homo sapiens, UniProt P08684). Briefly: CYP inhibition assay in pooled human liver microsomes (CYP3A4, midazolam). The settings on record: pH 7.4, probe midazolam (3 µM), 37 °C, read-out: CYP 3A4 half maximal inhibitory concentration (IC50). The format is in vitro ADME. (Liver microsomes are vesicles of endoplasmic reticulum, rich in cytochrome P450 enzymes.)
Chain of CYP3A4 (P08684 2-503): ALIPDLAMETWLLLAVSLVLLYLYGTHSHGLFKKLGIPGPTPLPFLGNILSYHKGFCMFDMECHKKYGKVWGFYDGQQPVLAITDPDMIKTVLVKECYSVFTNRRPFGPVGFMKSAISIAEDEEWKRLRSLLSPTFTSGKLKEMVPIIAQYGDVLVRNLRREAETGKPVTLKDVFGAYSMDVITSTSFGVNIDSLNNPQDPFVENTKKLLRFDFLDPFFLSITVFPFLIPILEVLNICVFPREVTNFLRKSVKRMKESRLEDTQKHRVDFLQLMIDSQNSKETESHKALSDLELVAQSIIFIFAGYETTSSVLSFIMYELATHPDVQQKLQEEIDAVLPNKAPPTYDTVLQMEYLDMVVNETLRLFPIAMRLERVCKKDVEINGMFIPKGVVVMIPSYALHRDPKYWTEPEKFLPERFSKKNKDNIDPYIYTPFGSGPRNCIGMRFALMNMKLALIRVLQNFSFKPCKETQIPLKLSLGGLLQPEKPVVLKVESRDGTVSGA

The next data set deals with CYP2D6 (Homo sapiens, UniProt P10635). In words: biochemical.
Chain of CYP2D6 (P10635 whole entry): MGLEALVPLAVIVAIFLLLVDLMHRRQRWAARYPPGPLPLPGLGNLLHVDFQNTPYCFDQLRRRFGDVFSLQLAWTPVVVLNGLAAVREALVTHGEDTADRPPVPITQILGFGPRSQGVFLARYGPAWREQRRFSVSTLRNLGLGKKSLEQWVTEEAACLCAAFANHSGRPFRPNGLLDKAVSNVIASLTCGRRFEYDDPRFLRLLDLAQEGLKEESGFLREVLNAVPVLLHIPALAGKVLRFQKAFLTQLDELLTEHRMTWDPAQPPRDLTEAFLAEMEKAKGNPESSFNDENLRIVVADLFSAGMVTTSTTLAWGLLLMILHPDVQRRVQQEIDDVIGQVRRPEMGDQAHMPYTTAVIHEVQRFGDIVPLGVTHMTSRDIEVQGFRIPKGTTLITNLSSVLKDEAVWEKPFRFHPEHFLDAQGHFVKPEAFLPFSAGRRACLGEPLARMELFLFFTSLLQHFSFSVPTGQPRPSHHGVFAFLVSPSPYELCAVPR
For the next data set, the target named is T2, human PXR (Homo sapiens, UniProt O75469).
T2 construct: host or cells: DPX2 (HepG2 stably transfected)
T2 sequence (O75469 1-434): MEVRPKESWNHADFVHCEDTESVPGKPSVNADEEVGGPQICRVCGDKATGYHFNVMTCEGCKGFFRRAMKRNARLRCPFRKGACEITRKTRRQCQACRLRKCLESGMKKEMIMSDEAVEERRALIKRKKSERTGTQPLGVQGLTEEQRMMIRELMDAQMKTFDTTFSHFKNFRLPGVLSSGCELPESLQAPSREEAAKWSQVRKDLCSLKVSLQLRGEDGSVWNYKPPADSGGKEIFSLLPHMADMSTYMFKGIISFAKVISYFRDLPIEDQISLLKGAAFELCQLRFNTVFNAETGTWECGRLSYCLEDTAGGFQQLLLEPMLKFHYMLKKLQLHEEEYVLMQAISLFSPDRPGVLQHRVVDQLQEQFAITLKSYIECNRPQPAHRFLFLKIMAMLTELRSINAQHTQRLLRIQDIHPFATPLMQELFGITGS
Briefly: PXR induction assay in DPX2 cells (luciferase reporter). The format is cell-based. The settings on record: for fold induction at 24 h, 0.123 µM: compound concentration 0.123 µM; for fold induction at 24 h, 10 µM: compound concentration 10.0 µM. The procedure:
• 1. […] The final concentration of DMSO was 0.1%. […] The reagent was gently and well mixed, and the mixture was incubated and well mixed at room temperature for 5 min.
In general terms: Reporter assays use an easily measured gene product as a stand-in for the process of interest.

[2] abbreviates: compound concentration 0.123 µM.

Experimental for CYP1A2: (§1) The effects of different concentrations of the test compounds on the metabolic reactions of phenacetin (CYP1A2), diclofenac sodium (CYP2C9), S-mephenytoin (CYP2C19), bufuralol hydrochloride (CYP2D6), and midazolam (CYP3A4/5) were assessed by liquid chromatography-tandem mass spectrometry (LC/MS/MS).
(§2) Then, 200 µL of an acetonitrile solution containing 3% formic acid and 40 nM internal standard verapamil was added, and the mixture was centrifuged at 4000 rpm for 50 min. The mixture was cooled on ice for 20 min and centrifuged at 4000 rpm for 20 min to precipitate protein. 200 µL of the supernatant was taken for LC/MS/MS analysis.
(§3) The peak area was calculated based on the chromatogram. The residual activity proportion (%) was calculated using the following formula: peak area ratio = peak area of metabolite / peak area of internal standard [formula]
(§4) The half maximal inhibitory concentrations (IC50) against CYP were calculated using Excel XLfit 5.3.1.3.
Experimental for CYP2D6: as §1, §2, §3, §4

Turning to `C[C@@H]1COc2c(-c3nc(N[C@@H]4CCOC[C@H]4O)ncc3Cl)cc(F)c3nc(C(C)(C)O)n1c23` (single isomer, unassigned) [Isomer 2 with a retention time of 1.887 min], the figures for the “Cell viability (%)” value in data set [1] (setting [2]) and in data set [1] (compound concentration 10.0 µM) were 102.41% and 108.37%, respectively. The IC50 against CYP1A2 and against CYP2D6 was > 30 µM throughout. Further, the IC50 at 5 min at CYP3A4 was > 30 µM. Further, at human PXR, the fold induction at 24 h, 0.123 µM was 0.99. Further, the fold induction at 24 h, 10 µM on human PXR amounted to 1.48.

With `C[C@H]1COc2c(-c3nc(N[C@@H]4CCOC[C@H]4O)ncc3Cl)cc(F)c3nc(C(C)(C)O)n1c23` (single isomer, unassigned) [Isomer 1 with a retention time of 2.078 min], the “Cell viability (%)” value in data set [1] (setting [2]) came out at 99.16%; in data set [1] (compound concentration 10.0 µM) it was 117.18%. In addition, the IC50 against CYP1A2 and at CYP2D6 was > 30 µM in each case. The IC50 at 5 min at CYP3A4 was > 30 µM. Besides, at human PXR, the fold induction at 24 h, 0.123 µM was 0.87. Further, the fold induction at 24 h, 10 µM on human PXR worked out at 1.43.
